Measurements from US20220132847A1, “CINNOLINIUM COMPOUNDS FOR USE IN A METHOD OF CONTROLLING UNWANTED PLANT GROWTH” (SYNGENTA CROP PROTECTION AG, priority 2019, published 2022).

Key:
Assay in all cases: Post-emergence efficacy, glasshouse
Assay type in all cases: in vivo
Eleusine indica (ELEIN) = settings: Eleusine indica, post-emergence, 312 h, evaluated after 13 days, 100=total damage to plant, 0=no damage to plant, read-out: Control of weed species after post-emergence application, ELEIN; for pest or weed control at 1000 g/ha: Application Rate 1000 g/Ha; for pest or weed control at 500 g/ha: Application Rate 500 g/Ha
Outline: (§1)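 Plants grown 14 days in glasshouse (24/16° C, 14 h light, 65% humidity), then sprayed post-emergence with active ingredient in IF50 solvent/emulsifier mix, diluted in 0.25% or 1% Empicol ESC70 + 1% ammonium sulphate. Damage scored 13 days later, 0–100 (100 = total damage).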

Lolium perenne (LOLPE) = settings: Lolium perenne, post-emergence, 312 h, evaluated after 13 days, 100=total damage to plant, 0=no damage to plant, read-out: Control of weed species after post-emergence application, LOLPE; for pest or weed control at 1000 g/ha: Application Rate 1000 g/Ha; for pest or weed control at 500 g/ha: Application Rate 500 g/Ha
Outline: as §1

[1] = system: Echinochloa crus-galli (ECHCG); settings: Echinochloa crus-galli, post-emergence, 312 h, evaluated after 13 days, 100=total damage to plant, 0=no damage to plant, read-out: Control of weed species after post-emergence application, ECHCG; for pest or weed control at 1000 g/ha: Application Rate 1000 g/Ha; for pest or weed control at 500 g/ha: Application Rate 500 g/Ha
Outline: as §1

[2] = system: Chenopodium album (CHEAL); settings: Chenopodium album, post-emergence, 312 h, evaluated after 13 days, 100=total damage to plant, 0=no damage to plant, read-out: Control of weed species after post-emergence application, CHEAL; for pest or weed control at 1000 g/ha: Application Rate 1000 g/Ha; for pest or weed control at 500 g/ha: Application Rate 500 g/Ha
Outline: as §1

[3] = system: Amaranthus palmeri (AMAPA); settings: Amaranthus palmeri, post-emergence, 312 h, evaluated after 13 days, 100=total damage to plant, 0=no damage to plant, read-out: Control of weed species after post-emergence application, AMAPA; for pest or weed control at 1000 g/ha: Application Rate 1000 g/Ha; for pest or weed control at 500 g/ha: Application Rate 500 g/Ha
Outline: as §1

[4] = system: Digitaria sanguinalis (DIGSA); settings: Digitaria sanguinalis, post-emergence, 312 h, evaluated after 13 days, 100=total damage to plant, 0=no damage to plant, read-out: Control of weed species after post-emergence application, DIGSA; for pest or weed control at 1000 g/ha: Application Rate 1000 g/Ha; for pest or weed control at 500 g/ha: Application Rate 500 g/Ha
Outline: as §1

[5] = system: Euphorbia heterophylla (EPHHL); settings: Euphorbia heterophylla, post-emergence, 312 h, evaluated after 13 days, 100=total damage to plant, 0=no damage to plant, read-out: Control of weed species after post-emergence application, EPHHL; for pest or weed control at 1000 g/ha: Application Rate 1000 g/Ha; for pest or weed control at 500 g/ha: Application Rate 500 g/Ha
Outline: as §1

Setaria faberi (SETFA) = settings: Setaria faberi, post-emergence, 312 h, evaluated after 13 days, 100=total damage to plant, 0=no damage to plant, read-out: Control of weed species after post-emergence application, SETFA; for pest or weed control at 1000 g/ha: Application Rate 1000 g/Ha; for pest or weed control at 500 g/ha: Application Rate 500 g/Ha
Outline: as §1

[6] = system: Ipomoea hederacea (IPOHE); settings: Ipomoea hederacea, post-emergence, 312 h, evaluated after 13 days, 100=total damage to plant, 0=no damage to plant, read-out: Control of weed species after post-emergence application, IPOHE; for pest or weed control at 1000 g/ha: Application Rate 1000 g/Ha; for pest or weed control at 500 g/ha: Application Rate 500 g/Ha
Outline: as §1

Row | Structure (SMILES) | pest or weed control at 1000 g/ha (Eleusine indica (ELEIN)) [%] | pest or weed control at 1000 g/ha (Lolium perenne (LOLPE)) [%] | pest or weed control at 1000 g/ha [1] [%] | pest or weed control at 1000 g/ha [2] [%] | pest or weed control at 1000 g/ha [3] [%] | pest or weed control at 1000 g/ha [4] [%] | pest or weed control at 1000 g/ha [5] [%] | pest or weed control at 1000 g/ha (Setaria faberi (SETFA)) [%] | pest or weed control at 1000 g/ha [6] [%] | pest or weed control at 500 g/ha (Eleusine indica (ELEIN)) [%] | pest or weed control at 500 g/ha (Lolium perenne (LOLPE)) [%] | pest or weed control at 500 g/ha [1] [%] | pest or weed control at 500 g/ha [2] [%] | pest or weed control at 500 g/ha [3] [%] | pest or weed control at 500 g/ha [4] [%] | pest or weed control at 500 g/ha [5] [%] | pest or weed control at 500 g/ha (Setaria faberi (SETFA)) [%] | pest or weed control at 500 g/ha [6] [%]
1 | O=P([O-])(O)c1c[n+](CCO)nc2ccccc12 [Compound A67, hydroxy-[2-(2-hydroxyethyl)cinnolin-2-ium-4-yl]phosphinate] | 10 | 0 | 20 | 60 | 30 | 90 | 30 | 50 | 30 |  |  |  |  |  |  |  |  | 
2 | COP(=O)([O-])c1c[n+](CCO)nc2ccccc12 [Compound A68, [2-(2-hydroxyethyl)cinnolin-2-ium-4-yl]-methoxy-phosphinate] | 100 | 40 | 60 | 100 | 100 | 100 | 100 | 90 | 100 |  |  |  |  |  |  |  |  | 
3 | CCOP(=O)(O)c1c[n+](CCO)nc2ccccc12 [Compound A69] |  |  |  |  |  |  |  |  |  | 90 | 40 | 70 | 90 | 100 | 100 | 100 | 90 | 90
4 | COP(=O)(OC)c1c[n+](CCOS(=O)(=O)[O-])nc2ccccc12 [Compound A70] | 80 | 10 | 70 | 60 | 50 | 70 | 60 | 20 | 30 |  |  |  |  |  |  |  |  | 
5 | CCOP(=O)(O)c1c[n+](CCO)nc2ccccc12 [Compound A71] | 90 | 40 | 30 | 90 | 100 | 90 | 100 | 100 | 80 |  |  |  |  |  |  |  |  | 
6 | CC(C)OP(=O)([O-])c1c[n+](C(C)(C)C)nc2ccccc12 [Compound A74] |  |  |  |  |  |  |  |  |  | 60 | 30 | 10 | 60 | 100 | 20 | 50 | 20 | 50
7 | CCOP(=O)([O-])c1c[n+](C(C)(C)C)nc2ccccc12 [Compound A75, (2-tert-butylcinnolin-2-ium-4-yl)-ethoxy-phosphinate] |  |  |  |  |  |  |  |  |  | 70 | 30 | 70 | 50 | 50 | 30 | 30 | 30 | 30
8 | CC(C)OP(=O)([O-])c1c[n+](C(C)C)nc2ccccc12 [Compound A76, isopropoxy-(2-isopropylcinnolin-2-ium-4-yl)phosphinate] |  |  |  |  |  |  |  |  |  | 100 | 50 | 70 | 90 | 100 | 80 | 100 | 80 | 90
9 | CCOP(=O)([O-])c1c[n+](C(C)C)nc2ccccc12 [Compound A77] |  |  |  |  |  |  |  |  |  | 100 | 30 | 50 | 90 | 100 | 90 | 80 | 90 | 90
